Experimental data published in patent US20090156646A1, “PYRIDYLPHENOL COMPOUND AND USE THEREOF” (TAKEDA PHARMACEUTICAL COMPANY LIMITED, priority 2005, published 2009).
pIC50: −log10 of the molar value.

Columns and labels:
[1] = target: T1, human metastin receptor hOT7T175 (Homo sapiens, UniProt Q969F8, L364H); assay: binding inhibiting activity: 125I-metastin (40-54) binding to cell membrane fraction of h175 KB34 cells; conditions: room temperature 60 minutes, read-out: binding inhibiting activity, represented by the IC50 value
T1 construct: encoding the entire length of human metastin receptor hOT7T175; expressed in transfected cells; host or cells: CHO/dhFr- cells (ATCC #CRL-9096) stably transfected with pAKKO-hOT7T175; clone h175-16 was used as whole cells for FLIPR
In short: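 The assay buffer (pH 7.4 Tris with magnesium acetate, EGTA and a protease-inhibitor cocktail) was used either plain or supplemented with 1 mg/ml BSA. The radioligand was 125I-labelled human metastin (40-54). The receptor source was a 250-fold diluted membrane fraction of the stable CHO/dhfr− line h175 KB34.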

T1 sequence (Q969F8 whole entry L364H): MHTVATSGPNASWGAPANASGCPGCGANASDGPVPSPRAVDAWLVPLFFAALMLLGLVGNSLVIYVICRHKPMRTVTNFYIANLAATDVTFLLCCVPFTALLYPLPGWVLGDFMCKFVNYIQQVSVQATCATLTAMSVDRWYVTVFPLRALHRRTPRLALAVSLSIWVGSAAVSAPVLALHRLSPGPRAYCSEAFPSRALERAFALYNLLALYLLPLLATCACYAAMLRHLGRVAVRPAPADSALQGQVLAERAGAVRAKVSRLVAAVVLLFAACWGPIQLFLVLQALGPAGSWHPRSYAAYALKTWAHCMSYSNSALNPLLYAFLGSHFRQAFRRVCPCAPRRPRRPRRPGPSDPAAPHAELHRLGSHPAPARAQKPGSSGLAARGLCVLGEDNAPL

| SMILES | pIC50 [1] | melting point |
| --- | --- | --- |
| Cl.N#Cc1c(-c2cccc(NC(=O)[C@H]3CCCN3)c2)cc(-c2ccc(F)cc2O)nc1NC(=O)c1ccco1 [Example 291, N-{3-[3-cyano-6-(4-fluoro-2-hydroxyphenyl)-2-(2-furoylamino)pyridin-4-yl]phenyl}-D-prolinamide hydrochloride] | ≥ 5.00 | 216 to 220 °C |
| Cl.N#Cc1c(-c2cccc(NC(=O)[C@H]3CCCN3)c2)cc(-c2ccc(F)cc2O)nc1NC(=O)c1nccs1 [Example 292, N-(3-{3-cyano-6-(4-fluoro-2-hydroxyphenyl)-2-[(1,3-thiazol-2-ylcarbonyl)amino]pyridin-4-yl}phenyl)-D-prolinamide hydrochloride] | ≥ 5.00 | 241 to 244 °C |
| Cl.N#Cc1c(-c2cccc(NC(=O)[C@H]3CCCN3)c2)cc(-c2ccc(F)cc2O)nc1NC(=O)c1ccno1 [Example 293, N-(3-{3-cyano-6-(4-fluoro-2-hydroxyphenyl)-2-[(isoxazol-5-ylcarbonyl)amino]pyridin-4-yl}phenyl)-D-prolinamide hydrochloride] | ≥ 5.00 | ≥ 250 °C (dec.) |
| Cl.N#Cc1c(-c2cccc(NC(=O)[C@H]3CCCN3)c2)cc(-c2ccc(Cl)cc2O)nc1NC(=O)c1nccs1 [Example 294, N-(3-{6-(4-chloro-2-hydroxyphenyl)-3-cyano-2-[(1,3-thiazol-2-ylcarbonyl)amino]pyridin-4-yl}phenyl)-D-prolinamide hydrochloride] | ≥ 5.00 | 222 to 228 °C |
| Cl.N#Cc1c(-c2cccc(NC(=O)[C@H]3CCCN3)c2)cc(-c2ccc(Cl)cc2O)nc1NC(=O)c1ccno1 [Example 295, N-(3-{6-(4-chloro-2-hydroxyphenyl)-3-cyano-2-[(isoxazol-5-ylcarbonyl)amino]pyridin-4-yl}phenyl)-D-prolinamide hydrochloride] | ≥ 5.00 | ≥ 250 °C (dec.) |
| Cl.N#Cc1c(-c2cccc(NC(=O)[C@H]3CCCN3)c2)cc(-c2ccc(Cl)cc2O)nc1NC(=O)c1ccco1 [Example 296, N-{3-[6-(4-chloro-2-hydroxyphenyl)-3-cyano-2-(2-furoylamino)pyridin-4-yl]phenyl}-D-prolinamide hydrochloride] | ≥ 5.00 | 208 to 213 °C |
| Cl.N#Cc1c(-c2cccc(NC(=O)[C@@H]3C[C@@H](O)CN3)c2)cc(-c2ccc(F)cc2O)nc1NC(=O)c1ccco1 [Example 298, (4R)—N-{3-[3-cyano-6-(4-fluoro-2-hydroxyphenyl)-2-(2-furoylamino)pyridin-4-yl]phenyl}-4-hydroxy-L-prolinamide hydrochloride] | ≥ 5.00 | 260 to 262 °C |
| CN1C[C@H](O)C[C@H]1C(=O)Nc1cccc(-c2cc(-c3ccc(F)cc3O)nc(NC(=O)c3ccco3)c2C#N)c1.Cl [Example 299, (4R)—N-{3-[3-cyano-6-(4-fluoro-2-hydroxyphenyl)-2-(2-furoylamino)pyridin-4-yl]phenyl}-4-hydroxy-1-methyl-L-prolinamide hydrochloride] | ≥ 5.00 | 215 to 217 °C |
| COC[C@H](N)C(=O)Nc1cccc(-c2cc(-c3ccc(F)cc3O)nc(NC(=O)c3ccco3)c2C#N)c1.Cl [Example 301, N-(3-cyano-6-(4-fluoro-2-hydroxyphenyl)-4-{3-[(O-methyl-L-seryl)amino]phenyl}pyridin-2-yl)-2-furamide hydrochloride] | ≥ 5.00 | 224 to 230 °C |
| CCN(CC)[C@@H](COC)C(=O)Nc1cccc(-c2cc(-c3ccc(F)cc3O)nc(NC(=O)c3ccco3)c2C#N)c1.Cl [Example 306, N-[3-cyano-4-{3-[(N,N-diethyl-O-methyl-L-seryl)amino]phenyl}-6-(4-fluoro-2-hydroxyphenyl)pyridin-2-yl]-2-furamide hydrochloride] | ≥ 5.00 | 192 to 196 °C |
| CC(=O)NCCNc1cccc(-c2cc(-c3ccc(F)cc3O)nc(NC(=O)c3ccco3)c2C#N)c1 [Example 307, N-[4-(3-{[2-(acetylamino)ethyl]amino}phenyl)-3-cyano-6-(4-fluoro-2-hydroxyphenyl)pyridin-2-yl]-2-furamide] | ≥ 5.00 | 158 to 160 °C |
| CCNC(CC)CC(=O)Nc1cccc(-c2cc(-c3ccc(F)cc3O)nc(NC(=O)c3ccco3)c2C#N)c1.Cl (centres unmarked) [Example 308, N-[3-cyano-4-(3-{[3-(ethylamino)pentanoyl]amino}phenyl)-6-(4-fluoro-2-hydroxyphenyl)pyridin-2-yl]-2-furamide hydrochloride] | ≥ 5.00 | 233 to 238 °C |
| CN(C)CCNC(=O)c1cccc(-c2cc(-c3ccc(F)cc3O)nc(NC(=O)c3ccco3)c2C#N)c1.Cl [Example 309, N-[3-cyano-4-[3-({[2-(dimethylamino)ethyl]amino}carbonyl)phenyl]-6-(4-fluoro-2-hydroxyphenyl)pyridin-2-yl]-2-furamide hydrochloride] | ≥ 5.00 | 200 to 204 °C |
| CCN(CC)CCNC(=O)c1cccc(-c2cc(-c3ccc(F)cc3O)nc(NC(=O)c3ccco3)c2C#N)c1.Cl [Example 310, N-[3-cyano-4-[3-({[2-(diethylamino)ethyl]amino}carbonyl)phenyl]-6-(4-fluoro-2-hydroxyphenyl)pyridin-2-yl]-2-furamide hydrochloride] | ≥ 5.00 | 200 to 204 °C |
| CCN(CC)CC(=O)Nc1cccc(-c2cc(-c3ccc(F)cc3O)nc(NC(=O)c3ccco3)c2C#N)c1.Cl [Example 315, N-[3-cyano-4-{3-[(N,N-diethylglycyl)amino]phenyl}-6-(4-fluoro-2-hydroxyphenyl)pyridin-2-yl]-2-furamide hydrochloride] | ≥ 5.00 | 262 to 263 °C |
| CCN(C)CCC(=O)Nc1cccc(-c2cc(-c3ccc(F)cc3O)nc(NC(=O)c3ccco3)c2C#N)c1.Cl [Example 316, N-[3-cyano-4-{3-[(N-ethyl-N-methyl-β-alanyl)amino]phenyl}-6-(4-fluoro-2-hydroxyphenyl)pyridin-2-yl]-2-furamide hydrochloride] | ≥ 5.00 | 223 to 224 °C |
| CCCN(CCC)C(C)CC(=O)Nc1cccc(-c2cc(-c3ccc(F)cc3O)nc(NC(=O)c3ccco3)c2C#N)c1.Cl (centres unmarked) [Example 318, N-[3-cyano-4-(3-{[3-(dipropylamino)butanoyl]amino}phenyl)-6-(4-fluoro-2-hydroxyphenyl)pyridin-2-yl]-2-furamide hydrochloride] | ≥ 5.00 | 198 to 200 °C |
| CCC(CC(=O)Nc1cccc(-c2cc(-c3ccc(F)cc3O)nc(NC(=O)c3ccco3)c2C#N)c1)N(CC)CC.Cl (centres unmarked) [Example 319, N-[3-cyano-4-(3-{[3-(diethylamino)pentanoyl]amino}phenyl)-6-(4-fluoro-2-hydroxyphenyl)pyridin-2-yl]-2-furamide hydrochloride] | ≥ 5.00 | 171 to 175 °C |
| CCNC(C)CC(=O)Nc1cccc(-c2cc(-c3ccc(F)cc3O)nc(NC(=O)c3ccco3)c2C#N)c1.Cl (centres unmarked) [Example 320, N-[3-cyano-4-(3-{[3-(ethylamino)butanoyl]amino}phenyl)-6-(4-fluoro-2-hydroxyphenyl)pyridin-2-yl]-2-furamide hydrochloride] | ≥ 5.00 | 249 to 255 °C |
| CC(C)NC(C)CC(=O)Nc1cccc(-c2cc(-c3ccc(F)cc3O)nc(NC(=O)c3ccco3)c2C#N)c1.Cl (centres unmarked) [Example 321, N-[3-cyano-6-(4-fluoro-2-hydroxyphenyl)-4-(3-{[3-(isopropylamino)butanoyl]amino}phenyl)pyridin-2-yl]-2-furamide hydrochloride] | ≥ 5.00 | 197 to 199 °C |
| CCN1CCCCC1CC(=O)Nc1cccc(-c2cc(-c3ccc(F)cc3O)nc(NC(=O)c3ccco3)c2C#N)c1.Cl (centres unmarked) [Example 322, N-[3-cyano-4-(3-{[(1-ethylpiperidin-2-yl)acetyl]amino}phenyl)-6-(4-fluoro-2-hydroxyphenyl)pyridin-2-yl]-2-furamide hydrochloride] | ≥ 5.00 | 201 to 203 °C |
| Cl.N#Cc1c(-c2cccc(N3CCCNCC3)c2)cc(-c2ccc(F)cc2O)nc1NC(=O)c1ccco1 [Example 326, N-[3-cyano-4-[3-(1,4-diazepan-1-yl)phenyl]-6-(4-fluoro-2-hydroxyphenyl)pyridin-2-yl]-2-furamide hydrochloride] | ≥ 5.00 | 254 to 259 °C |
| CN1CCN(c2cccc(-c3cc(-c4ccc(F)cc4O)nc(NC(=O)c4ccco4)c3C#N)c2)CC1.Cl [Example 327, N-{3-cyano-6-(4-fluoro-2-hydroxyphenyl)-4-[3-(4-methylpiperazin-1-yl)phenyl]pyridin-2-yl}-2-furamide hydrochloride] | ≥ 5.00 | 254 to 259 °C |
| CCN(CC)CCC(=O)Nc1cccc(-c2cc(-c3ccc(F)cc3O)nc(NC(=O)c3ccco3)c2C#N)c1.Cl [Example 328, N-[3-cyano-4-{3-[(N,N-diethyl-β-alanyl)amino]phenyl}-6-(4-fluoro-2-hydroxyphenyl)pyridin-2-yl]-2-furamide hydrochloride] | ≥ 5.00 | 209 to 213 °C |
| Cl.N#Cc1c(-c2cccc(NC(=O)CN)c2)cc(-c2ccc(F)cc2O)nc1NC(=O)c1ccco1 [Example 329, N-{3-cyano-6-(4-fluoro-2-hydroxyphenyl)-4-[3-(glycylamino)phenyl]pyridin-2-yl}-2-furamide hydrochloride] | ≥ 5.00 | 229 to 236 °C |
